Results: US12168008B2, “Oxabicycloheptanes for modulation of immune response” (LIXTE BIOTECHNOLOGY, INC., priority 2016, dated 2024)
Read-outs that look alike come from different tables or passages of the source.

Assay type: in vivo, human
Conditions: for dose limiting toxicity (reversible increases in serum creatinine or calculated serum creatinine clearance): 3.1 mg/m2
Description: Experimental Design: LB-100 was administered intravenously daily for 3 days in 21-day cycles in a 3+3 dose-escalation design. The primary goal was to determine the maximum tolerated dose and recommended phase 2 dose (ClinicalTrials.gov: NCT01837667).
Eligible patients were aged 18 years or older with proven progressive solid tumors who had failed standard treatments. Patients had to have a life expectancy of at least 12 weeks, an ECOG performance status of 0 or 1, and be able to give informed consent. […] They must not have any other uncontrolled systemic disease. Women of childbearing potential had to have a negative serum or urine pregnancy test result.
An open-label, dose-escalation, phase I study was performed to assess the safety, tolerability, and activity of LB-100 administered for 3 consecutive days every 3 weeks. Pharmacokinetic studies were planned at the maximum tolerable dose (MTD). The starting dose, 0.25 mg/m^2, 1/15th of the highest non-severely toxic dose in dogs, and plan of dose escalation was specified by the FDA. The study was approved by the human investigations committee at each study center and is registered at clinicaltrials.gov: NCT01837667.
LB-100 was supplied as a single use solution. Initially, LB-100 was administered in 50 mL of saline over 15 minutes. […] Dose escalation was prohibited within any cohort. Patients were eligible to receive up to 6 cycles of study therapy, unless unacceptable toxicity, disease progression, or inter-current illness required discontinuation. More than 6 cycles were allowed in the absence of progression and toxicity. Because of cardiac and renal toxicity at high doses in animal toxicology studies, patients had extensive monitoring including ECG, MUGA or echocardiogram, cardiac troponins, and BNP prior to every cycle. Blood chemistries, urinalysis, hematologic profile and vital signs were monitored prior to and on day 1, 3, 8, 15, and 22 of each cycle. Laboratory parameters were tabulated by maximum NCI-CTCAE (Version 4.0) severity grade. A safety review committee assessed all clinical data every 2 weeks and approved dose escalation between cohorts.
Doses of LB-100 were escalated in groups of three patients. […] When a potential DLT occurred, three new patients were entered at that dose. If another DLT occurred, three additional patients were treated at the previous non-DLT dose to determine the safety of that level for phase 2 trials.
Response to treatment was assessed using RECIST version 1.1. All patients with measurable disease, who completed 2 cycles of LB-100 and had at least 1 post-baseline tumor assessment, were evaluable for efficacy. Patients receiving any LB-100 were evaluable for safety. The severity of adverse events and laboratory abnormalities is reported according to NCI-CTCAE version 4.0 and coded using Medical Dictionary for Regulatory Activities.

SMILES: CN1CCN(C(=O)C2C(C(=O)O)[C@H]3CC[C@@H]2O3)CC1 (some centres unmarked) [LB-100]
- DLT during the first 6 dose levels (0.25-2.33 mg/m^2): no DLT
- HEADACHE, patients n (%) (Grade 1-2): 3 (10.3%)
- HEADACHE, patients n (%) (Grade 3): 0
- HEADACHE, patients n (%) (Grade 4): 0
- ABDOMINAL DISCOMFORT, patients n (%) (Grade 5): 0
- ABDOMINAL DISTENSION, patients n (%) (Grade 5): 0
- ACCELERATED HYPERTENSION, patients n (%) (Grade 5): 0
- ALANINE AMINOTRANSFERASE INCREASED, patients n (%) (Grade 5): 0
- ANAEMIA, patients n (%) (Grade 5): 0
- ARTHRALGIA, patients n (%) (Grade 5): 0
- BLOOD ALKALINE PHOSPHATASE INCREASED, patients n (%) (Grade 5): 0
- BLOOD UREA INCREASED, patients n (%) (Grade 5): 0
- CANDIDIASIS, patients n (%) (Grade 5): 0
- CHEST PAIN, patients n (%) (Grade 5): 0
- CHILLS, patients n (%) (Grade 5): 0
- CONSTIPATION, patients n (%) (Grade 5): 0
- DECREASED APPETITE, patients n (%) (Grade 5): 0
- DERMATITIS ACNEIFORM, patients n (%) (Grade 5): 0
- DIARRHOEA, patients n (%) (Grade 5): 0
- DIZZINESS, patients n (%) (Grade 5): 0
- EJECTION FRACTION DECREASED, patients n (%) (Grade 5): 0
- ELECTROCARDIOGRAM QT PROLONGED, patients n (%) (Grade 5): 0
- GAIT DISTURBANCE, patients n (%) (Grade 5): 0
- GASTROINTESTINAL DISORDER, patients n (%) (Grade 5): 0
- GENERALISED OEDEMA, patients n (%) (Grade 5): 0
- GINGIVAL PAIN, patients n (%) (Grade 5): 0
- HEADACHE, patients n (%) (Grade 5): 0
- HYPERCALCAEMIA, patients n (%) (Grade 5): 0
- HYPERKALAEMIA, patients n (%) (Grade 5): 0
- HYPERNATRAEMIA, patients n (%) (Grade 5): 0
- HYPERTENSION, patients n (%) (Grade 5): 0
- HYPOAESTHESIA, patients n (%) (Grade 5): 0
- HYPOALBUMINAEMLA, patients n (%) (Grade 5): 0
- HYPOKINESIA, patients n (%) (Grade 5): 0
- HYPOTENSION, patients n (%) (Grade 5): 0
- HYPOXIA, patients n (%) (Grade 5): 0
- INSOMNIA, patients n (%) (Grade 5): 0
- MUCOSAL INFLAMMATION, patients n (%) (Grade 5): 0
- MUSCLE TWITCHING, patients n (%) (Grade 5): 0
- MUSCULAR WEAKNESS, patients n (%) (Grade 5): 0
- NAUSEA, patients n (%) (Grade 5): 0
- NEUROPATHY PERIPHERAL, patients n (%) (Grade 5): 0
- NEUTROPENIA, patients n (%) (Grade 5): 0
- OEDEMA PERIPHERAL, patients n (%) (Grade 5): 0
- OEDEMA, patients n (%) (Grade 5): 0
- PAIN OF SKIN, patients n (%) (Grade 5): 0
- PERIPHERAL COLDNESS, patients n (%) (Grade 5): 0
- PERIPHERAL SENSORY NEUROPATHY, patients n (%) (Grade 5): 0
- PLATELET COUNT DECREASED, patients n (%) (Grade 5): 0
- PLEURAL EFFUSION, patients n (%) (Grade 5): 0
- PROTEINURIA, patients n (%) (Grade 5): 0
- PYREXIA, patients n (%) (Grade 5): 0
- SINUS TACHYCARDIA, patients n (%) (Grade 5): 0
- recommended phase 2 dose (daily for 3 days every 3 weeks, i.v.): 2.33 mg/m2
- Probable or possible study drug related Grade 3 adverse events (human, in vivo): 6 (20.7%) patients (%)
- dose limiting toxicity (reversible increases in serum creatinine or calculated serum creatinine clearance) (human, in vivo): 2/4
- symptomatic toxicity (in vivo): no symptomatic toxicity other than reversible mild to moderate fatigue
- toxicities suggestive of autoimmune activity (in vivo): no patient experienced toxicities suggestive of autoimmune activity
- dose limiting toxicity (reversible increases in serum creatinine or calculated serum creatinine clearance) (in vivo): Two
